US20180200257A1, “METHODS FOR THE TREATMENT OF INFLAMMATORY DISORDERS” (Galapagos NV, priority 2015, published 2018)

Test system: subjects with moderately to severely active RA who have an inadequate response to methotrexate (MTX)
Assay: Study 1 (add-on to MTX) - ACR responses (ACR20/50/70)
Type: in vivo, human
From the text: The terms “ACR20”, “ACR50” and “ACR70” as used herein are scores which indicate how much a patient's rheumatoid arthritis has improved according to criteria set out by the American College of Rheumatology (ACR). The ACR score represents a percentage. An ACR20 score means that a person's RA has improved by 20%, an ACR50 score means it has improved by 50%, and an ACR70 score means it has improved by 70%. Specifically, to qualify for an ACR20 score, a person with RA must have at least 20% fewer tender joints and at least 20% fewer swollen joints. In addition the patient must show a 20% improvement in at least three of the following five areas: the person's overall (global) assessment of his or her own RA, the physician's global assessment of the person's RA, the person's assessment of his or her own pain, the person's assessment of his or her own physical functioning, and the results of an erythrocyte sedimentation rate or C-reactive protein (CRP) blood test (both of which test for inflammation). ACR50 and ACR70 scores use the same criteria but require 50% and 70% improvement, respectively, (Felson et al., 1993). In the data presented herein the CRP blood test is used.
Double-blind, placebo-controlled add on study in subjects with moderately to severely active RA who have an inadequate response to methotrexate (MTX) (oral or parenteral).
595 subjects randomized to one of 6 dose regimens of Compound 1 (dosed as [Compound 1:HCl:3H2O]) (3 dose levels administered either once or twice daily) or placebo on top of each subject's stable dose of MTX.
Compound 1 (dosed as [Compound 1:HCl:3H2O]) is dosed for twelve weeks once daily (q.d.) (50 mg, 100 mg or 200 mg) or twice daily (b.i.d.) (25 mg, 50 mg or 100 mg); or placebo.
At Week 12, the subjects on placebo who have not achieved 20% improvement in swollen joint count (SJC66) and tender joint count (TJC68) are re-randomized automatically to receive Compound 1 (dosed as a [Compound 1:HCl:3H2O]) either at 100 mg q.d. or 50 mg b.i.d. doses in a blinded fashion; subjects on 50 mg q.d. who have not achieved 20% improvement in SJC66 and TJC68 will be assigned to 100 mg q.d. and subjects on 25 mg b.i.d. that have not achieved a 20% improvement in SJC66 and TJC68 will be assigned to 50 mg b.i.d. Subjects who switch treatment at week 12 are handled as if they discontinued at week 12 for the purpose of statistical analysis, whereas subjects in the other groups will maintain their randomized treatment until Week 24.
The American College of Rheumatology (ACR) composite score, which evaluates clinical improvement relative to an initial assessment, is a commonly accepted efficacy end point for clinical trials in patients with rheumatoid arthritis. The ACR score correspond to a percentage improvement in pre-set parameters, and therefore measures the evolution of the disease in a patient. For example, ACR20 denotes at least 20% improvement in tender and swollen joint counts and in three of the following end points: global assessment by the patient, global assessment by the doctor, C reactive protein (CRP), patient's pain Visual Analogue Scale and Health Assessment Questionnaire Score. The number of swollen joints, ESR and CRP correlate with radiographic progression of joint damage, whereas tender joint counts, as well as global assessments by doctors and patients, and patients' reports of pain, are sensitive to change in clinical outcomes. Physical function, as assessed by the Health Assessment Questionnaire Score, is a potent predictor of the risk of disability in rheumatoid arthritis (Felson and American College of Rheumatology Committee to Reevaluate Improvement Criteria, 2007; Felson et al., 1993).
In particular, the list of parameters used to assess ACR score can be found in the Table XCVI below and the results of the ACR responses at week 12 via either NRI or LOCF are shown in the tables below. The Hommel-corrected p-value for the pairwise comparisons of each group with placebo is shown. […]

[1] = 2 × 25 mg b.i.d., week 2, 12 weeks results
[2] = 2 × 25 mg b.i.d., week 2, 24 weeks results
[3] = 2 × 25 mg b.i.d., week 4, 12 weeks results
[4] = 2 × 25 mg b.i.d., week 4, 24 weeks results
[5] = 2 × 25 mg b.i.d., week 8, 12 weeks results
[6] = 2 × 25 mg b.i.d., week 8, 24 weeks results
[7] = 2 × 25 mg b.i.d., week 12, 12 weeks results
[8] = 2 × 25 mg b.i.d., week 12, 24 weeks results
[9] = 2 × 25 mg b.i.d., week 16, 24 weeks results
[10] = 2 × 25 mg b.i.d., week 20, 24 weeks results
[11] = 2 × 25 mg b.i.d., week 24, 24 weeks results
[12] = 2 × 25 mg b.i.d., at week 1, 12 weeks results
[13] = 2 × 25 mg b.i.d., at week 1, 24 weeks results
[14] = 2 × 50 mg b.i.d., week 2, 12 weeks results
[15] = 2 × 50 mg b.i.d., week 2, 24 weeks results
[16] = 2 × 50 mg b.i.d., week 4, 12 weeks results
[17] = 2 × 50 mg b.i.d., week 4, 24 weeks results
[18] = 2 × 50 mg b.i.d., week 8, 12 weeks results
[19] = 2 × 50 mg b.i.d., week 8, 24 weeks results

O=C(Nc1nc2cccc(-c3ccc(CN4CCS(=O)(=O)CC4)cc3)n2n1)C1CC1 [Compound 1, cyclopropanecarboxylic acid {5-[4-(1,1-dioxo-thiomorpholin-4-ylmethyl)-phenyl]-[1,2,4]triazolo[1,5-a]pyridin-2-yl}-amide]
ACR70 (NRI) (200 mg q.d., week 8, 12 weeks results): 18.6% | ACR20 (LOCF) [1]: 27.9% | ACR20 (NRI) [1]: 29.1% | ACR50 (LOCF) [1]: 7.0% | ACR50 (NRI) [1]: 7.0% | ACR70 (LOCF) [1]: 2.3% | ACR70 (NRI) [1]: 2.3% | ACR20 (LOCF) [2]: 29.1% | ACR20 (NRI) [2]: 29.1% | ACR50 (LOCF) [2]: 7.0% | ACR50 (NRI) [2]: 7.0% | ACR70 (LOCF) [2]: 2.3% | ACR70 (NRI) [2]: 2.3% | ACR20 (LOCF) [3]: 44.2% | ACR20 (NRI) [3]: 45.3% | ACR50 (LOCF) [3]: 16.3% | ACR50 (NRI) [3]: 15.1% | ACR70 (LOCF) [3]: 5.8% | ACR70 (NRI) [3]: 5.8% | ACR20 (LOCF) [4]: 46.5% | ACR20 (NRI) [4]: 45.3% | ACR50 (LOCF) [4]: 16.3% | ACR50 (NRI) [4]: 15.1% | ACR70 (LOCF) [4]: 5.8% | ACR70 (NRI) [4]: 5.8% | ACR20 (LOCF) [5]: 58.1% | ACR20 (NRI) [5]: 58.1% | ACR50 (LOCF) [5]: 25.6% | ACR50 (NRI) [5]: 25.6% | ACR70 (LOCF) [5]: 8.1% | ACR70 (NRI) [5]: 9.3% | ACR20 (LOCF) [6]: 59.3% | ACR20 (NRI) [6]: 58.1% | ACR50 (LOCF) [6]: 25.6% | ACR50 (NRI) [6]: 25.6% | ACR70 (LOCF) [6]: 9.3% | ACR70 (NRI) [6]: 9.3% | ACR20 (LOCF) [7]: 58.1% | ACR20 (NRI) [7]: 57.0% | ACR50 (LOCF) [7]: 29.1% | ACR50 (NRI) [7]: 27.9% | ACR70 (LOCF) [7]: 14.0% | ACR70 (NRI) [7]: 14.0% | ACR20 (LOCF) [8]: 59.3% | ACR20 (NRI) [8]: 57.0% | ACR50 (LOCF) [8]: 29.1% | ACR50 (NRI) [8]: 27.9% | ACR70 (LOCF) [8]: 14.0% | ACR70 (NRI) [8]: 14.0% | ACR20 (LOCF) [9]: 55.8% | ACR20 (NRI) [9]: 52.3% | ACR50 (LOCF) [9]: 31.4% | ACR70 (LOCF) [9]: 10.5% | ACR20 (LOCF) [10]: 58.1% | ACR20 (NRI) [10]: 52.3% | ACR50 (LOCF) [10]: 41.9% | ACR70 (LOCF) [10]: 11.6% | ACR20 (LOCF) [11]: 62.8% | ACR20 (NRI) [11]: 55.8% | ACR50 (LOCF) [11]: 38.4% | ACR70 (LOCF) [11]: 22.1% | ACR20 (LOCF) [12]: 17.4% | ACR20 (NRI) [12]: 17.4% | ACR50 (LOCF) [12]: 2.3% | ACR50 (NRI) [12]: 3.5% | ACR70 (LOCF) [12]: 1.2% | ACR70 (NRI) [12]: 1.2% | ACR20 (LOCF) [13]: 17.4% | ACR20 (NRI) [13]: 17.4% | ACR50 (LOCF) [13]: 3.5% | ACR50 (NRI) [13]: 3.5% | ACR70 (LOCF) [13]: 2.4% | ACR70 (NRI) [13]: 1.2% | ACR20 (LOCF) [14]: 40.0% | ACR20 (NRI) [14]: 41.2% | ACR50 (LOCF) [14]: 11.8% | ACR50 (NRI) [14]: 11.8% | ACR70 (LOCF) [14]: 5.9% | ACR70 (NRI) [14]: 5.9% | ACR20 (LOCF) [15]: 41.2% | ACR20 (NRI) [15]: 41.2% | ACR50 (LOCF) [15]: 11.8% | ACR50 (NRI) [15]: 11.8% | ACR70 (LOCF) [15]: 5.9% | ACR70 (NRI) [15]: 5.9% | ACR20 (LOCF) [16]: 45.9% | ACR20 (NRI) [16]: 44.7% | ACR50 (LOCF) [16]: 20.0% | ACR50 (NRI) [16]: 17.6% | ACR70 (LOCF) [16]: 9.4% | ACR70 (NRI) [16]: 9.4% | ACR20 (LOCF) [17]: 47.1% | ACR20 (NRI) [17]: 45.3% | ACR50 (LOCF) [17]: 20.0% | ACR50 (NRI) [17]: 17.6% | ACR70 (LOCF) [17]: 9.4% | ACR70 (NRI) [17]: 9.4% | ACR20 (LOCF) [18]: 55.3% | ACR20 (NRI) [18]: 54.1% | ACR50 (LOCF) [18]: 32.9% | ACR50 (NRI) [18]: 32.9% | ACR70 (LOCF) [18]: 14.1% | ACR70 (NRI) [18]: 14.1% | ACR20 (LOCF) [19]: 55.3% | ACR20 (NRI) [19]: 54.1% | ACR50 (LOCF) [19]: 32.9% | ACR50 (NRI) [19]: 32.9% | ACR70 (LOCF) [19]: 14.1%
